According to patent US8614223B2, “Pyrimidine hydroxy amide compounds as protein deacetylase inhibitors and methods of use thereof” (Acetylon Pharmaceuticals, Inc., priority 2010, dated 2013):

What was measured:
[1] = molecular target: HDAC1 (Homo sapiens (Human), UniProt Q13547); assay: HDAC enzyme assay, HDAC1; conditions: for HDAC1 fold over HDAC6 IC50 (selectivity for HDAC6): ratio HDAC1/HDAC6; for IC50: read-out: HDAC1 IC50
[2] = molecular target: HDAC2 (Homo sapiens (Human), UniProt Q92769); assay: HDAC enzyme assay, HDAC2; conditions: for HDAC2 fold over HDAC6 IC50 (selectivity for HDAC6): ratio HDAC2/HDAC6; for IC50: read-out: HDAC2 IC50
[3] = molecular target: HDAC3 (Homo sapiens (Human), UniProt O15379); assay: HDAC enzyme assay, HDAC3; conditions: for HDAC3 fold over HDAC6 IC50 (selectivity for HDAC6): ratio HDAC3/HDAC6; for IC50: read-out: HDAC3 IC50
[4] = molecular target: HDAC6 (Homo sapiens (Human), UniProt Q9UBN7); conditions: read-out: HDAC6 IC50
Sequence of HDAC6 (Q9UBN7 whole entry): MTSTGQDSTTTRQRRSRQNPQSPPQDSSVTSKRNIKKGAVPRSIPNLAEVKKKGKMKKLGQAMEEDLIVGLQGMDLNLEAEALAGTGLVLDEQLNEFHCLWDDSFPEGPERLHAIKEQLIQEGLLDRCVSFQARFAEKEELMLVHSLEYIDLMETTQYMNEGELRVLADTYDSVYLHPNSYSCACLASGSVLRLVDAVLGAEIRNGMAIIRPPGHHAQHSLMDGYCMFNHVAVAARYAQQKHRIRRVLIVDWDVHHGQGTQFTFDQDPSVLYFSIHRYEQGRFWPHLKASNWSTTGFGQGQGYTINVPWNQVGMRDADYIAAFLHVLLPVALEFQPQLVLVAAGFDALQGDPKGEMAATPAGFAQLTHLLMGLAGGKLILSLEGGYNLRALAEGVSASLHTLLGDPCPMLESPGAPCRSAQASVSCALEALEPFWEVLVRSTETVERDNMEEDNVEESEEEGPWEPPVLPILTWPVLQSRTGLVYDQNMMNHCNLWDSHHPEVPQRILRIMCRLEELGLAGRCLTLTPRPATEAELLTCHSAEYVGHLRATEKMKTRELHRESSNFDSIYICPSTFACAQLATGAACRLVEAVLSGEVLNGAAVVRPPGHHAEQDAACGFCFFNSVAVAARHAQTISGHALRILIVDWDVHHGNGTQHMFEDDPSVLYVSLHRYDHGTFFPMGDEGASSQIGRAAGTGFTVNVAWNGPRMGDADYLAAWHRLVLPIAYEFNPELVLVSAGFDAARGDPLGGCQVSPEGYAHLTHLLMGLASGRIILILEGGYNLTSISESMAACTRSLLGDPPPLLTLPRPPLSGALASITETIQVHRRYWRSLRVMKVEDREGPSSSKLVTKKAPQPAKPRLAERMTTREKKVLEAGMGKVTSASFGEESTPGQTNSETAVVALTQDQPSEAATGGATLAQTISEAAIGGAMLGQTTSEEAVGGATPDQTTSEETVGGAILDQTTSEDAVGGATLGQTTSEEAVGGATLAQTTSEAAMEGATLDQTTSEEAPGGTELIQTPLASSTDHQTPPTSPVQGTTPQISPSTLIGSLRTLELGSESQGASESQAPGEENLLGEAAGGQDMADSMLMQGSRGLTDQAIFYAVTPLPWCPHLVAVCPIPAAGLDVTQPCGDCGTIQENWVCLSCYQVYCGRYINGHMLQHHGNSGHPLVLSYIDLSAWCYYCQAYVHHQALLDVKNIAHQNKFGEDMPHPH

Sequence of HDAC3 (O15379 whole entry): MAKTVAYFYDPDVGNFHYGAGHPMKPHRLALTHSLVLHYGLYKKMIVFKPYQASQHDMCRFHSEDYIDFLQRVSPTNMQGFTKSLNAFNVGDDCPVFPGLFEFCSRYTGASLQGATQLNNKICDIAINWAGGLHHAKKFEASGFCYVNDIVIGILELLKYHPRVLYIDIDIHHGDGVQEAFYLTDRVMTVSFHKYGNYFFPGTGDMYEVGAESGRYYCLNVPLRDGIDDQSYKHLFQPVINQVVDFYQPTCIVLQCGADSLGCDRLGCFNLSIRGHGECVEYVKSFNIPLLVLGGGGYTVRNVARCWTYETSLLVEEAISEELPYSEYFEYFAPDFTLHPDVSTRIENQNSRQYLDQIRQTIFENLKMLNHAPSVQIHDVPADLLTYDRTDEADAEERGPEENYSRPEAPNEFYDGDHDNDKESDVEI
Sequence of HDAC3 (Q9Y618 395-489 partner): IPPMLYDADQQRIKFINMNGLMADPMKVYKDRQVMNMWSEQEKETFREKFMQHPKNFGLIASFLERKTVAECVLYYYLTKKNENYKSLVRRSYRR
Sequence of HDAC1 (Q13547 whole entry): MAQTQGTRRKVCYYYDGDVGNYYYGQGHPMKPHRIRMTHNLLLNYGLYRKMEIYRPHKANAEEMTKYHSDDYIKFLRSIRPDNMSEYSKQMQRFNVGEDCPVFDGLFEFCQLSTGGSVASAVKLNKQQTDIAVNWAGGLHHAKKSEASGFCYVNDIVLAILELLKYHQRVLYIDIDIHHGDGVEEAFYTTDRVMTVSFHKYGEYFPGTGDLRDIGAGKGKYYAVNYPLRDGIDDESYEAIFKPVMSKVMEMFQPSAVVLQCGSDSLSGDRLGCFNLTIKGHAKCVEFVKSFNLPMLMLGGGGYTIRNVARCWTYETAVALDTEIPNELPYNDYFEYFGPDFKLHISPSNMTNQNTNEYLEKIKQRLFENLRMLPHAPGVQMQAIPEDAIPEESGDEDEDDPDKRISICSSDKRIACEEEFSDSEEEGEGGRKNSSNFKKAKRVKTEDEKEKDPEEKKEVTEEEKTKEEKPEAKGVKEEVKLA
Sequence of HDAC2 (Q92769 whole entry): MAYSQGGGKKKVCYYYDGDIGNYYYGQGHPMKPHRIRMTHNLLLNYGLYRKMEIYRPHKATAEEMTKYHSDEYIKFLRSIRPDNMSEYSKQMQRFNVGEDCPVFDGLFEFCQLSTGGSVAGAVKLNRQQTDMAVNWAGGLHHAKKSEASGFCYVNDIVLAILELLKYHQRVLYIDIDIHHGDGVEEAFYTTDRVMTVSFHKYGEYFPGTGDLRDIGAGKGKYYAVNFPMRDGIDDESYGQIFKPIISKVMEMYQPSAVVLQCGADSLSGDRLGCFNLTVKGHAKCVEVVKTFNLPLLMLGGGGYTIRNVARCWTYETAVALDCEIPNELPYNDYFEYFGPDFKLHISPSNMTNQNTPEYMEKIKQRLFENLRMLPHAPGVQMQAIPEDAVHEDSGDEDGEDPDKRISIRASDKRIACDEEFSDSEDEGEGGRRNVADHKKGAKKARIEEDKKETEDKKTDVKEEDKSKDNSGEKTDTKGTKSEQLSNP

SMILES | HDAC1 fold over HDAC6 IC50 (selectivity for HDAC6) [1] | IC50 [1] | HDAC2 fold over HDAC6 IC50 (selectivity for HDAC6) [2] | IC50 [2] | HDAC3 fold over HDAC6 IC50 (selectivity for HDAC6) [3] | IC50 [3] | IC50 [4]
CC(C)(Nc1ncc(C(=O)NO)cn1)c1ccc(F)c(F)c1 [Compound 76] | (153.3x) | 624 nM | (149.7x) | 609 nM | (260x) | 1060 nM | 4 nM
O=C(NO)c1cnc(NC(c2ccccc2)c2ccccc2)nc1 [Compound 60] | (53.5x) | 129 nM | (58.9x) | 142 nM | (98.1x) | 237 nM | 2 nM
O=C(NO)c1cnc(NC2(c3ccccc3)CCCC2)nc1 [Compound 88] | (215.2x) | 711 nM | (296.1x) | 978 nM | (679.1x) | 2240 nM | 3 nM
O=C(NO)c1cnc(NCc2ccc(F)cc2C(F)(F)F)nc1 [Compound 57] | (86x) | 526 nM | (116.6x) | 713 nM | (147.4x) | 901 nM | 6 nM
COc1ccc(C2(Nc3ncc(C(=O)NO)cn3)CCCCC2)cc1 [Compound 122] | (44.8x) | 893 nM | (45x) | 898 nM | (197.8x) | 3940 nM | 20 nM
COc1cc(OC)cc(C2(Nc3ncc(C(=O)NO)cn3)CC2)c1 [Compound 129] | (12.7x) | 43 nM | (15.4x) | 52 nM | (36.6x) | 124 nM | 3 nM
O=C(NO)c1cnc(NCCc2ccccc2Cl)nc1 [Compound 39] | (62.6x) | 263 nM | (92.2x) | 387 nM | (117.9x) | 495 nM | 4 nM
Cc1cccc(C)c1CNc1ncc(C(=O)NO)cn1 [Compound 54] | (64.4x) | 1370 nM | (98.9x) | 2100 nM | (73.7x) | 1570 nM | 21 nM
O=C(NO)c1cnc(NCc2cccc(Cl)c2)nc1 [Compound 34] | (15.5x) | 20 nM | (21.5x) | 28 nM | (25.7x) | 34 nM | 1 nM
Cc1cc(C(F)(F)F)cc(C2(Nc3ncc(C(=O)NO)cn3)CC2)c1 [Compound 147] | (18.2x) | 64 nM | (20.9x) | 73 nM | (54x) | 189 nM | 3 nM
O=C(NO)c1cnc(NCc2ccccc2Cl)nc1 [Compound 33] | (56.4x) | 110 nM | (116.2x) | 226 nM | (86.7x) | 169 nM | 2 nM
CC(C)(Nc1ncc(C(=O)NO)cn1)c1ccc(Cl)cc1F [Compound 83] | (139.2x) | 447 nM | (140.9x) | 452 nM | (289x) | 928 nM | 3 nM
O=C(NO)c1cnc(NC2(c3ccccc3)CCC2)nc1 [Compound 130] | (43.3x) | 140 nM | (48.9x) | 159 nM | (160.9x) | 521 nM | 3 nM
O=C(NO)c1cnc(NCc2c(Cl)cccc2Cl)nc1 [Compound 48] | (48.8x) | 363 nM | (80.8x) | 601 nM | (53.9x) | 401 nM | 7 nM
O=C(NO)c1cnc(NC2(c3cccc(OC(F)(F)F)c3)CC2)nc1 [Compound 125] | (8.7x) | 18 nM | (9x) | 19 nM | (27.1x) | 57 nM | 2 nM
COc1cc(Nc2ncc(C(=O)NO)cn2)cc(C(F)(F)F)c1 [Compound 21] | (46x) | 241 nM | (100.3x) | 526 nM | (92.2x) | 484 nM | 5 nM
O=C(NO)c1cnc(Nc2ccccc2)nc1 [Compound 1, N-hydroxy-2-(phenylamino)pyrimidine-5-carboxamide] | 20x |  | 30x |  | 27x |  | 7 nM
CC(C)(Nc1ncc(C(=O)NO)cn1)c1ccc(Cl)c(Cl)c1 [Compound 80] | (40.4x) | 85 nM | (60.2x) | 127 nM | (100.3x) | 212 nM | 2 nM
O=C(NO)c1cnc(NC(c2ccc(F)cc2)c2ccc(F)cc2)nc1 [Compound 89] | (64.4x) | 223 nM | (78.1x) | 270 nM | (158.8x) | 549 nM | 3 nM
O=C(NO)c1cnc(NC2(c3ccccc3)CCCCC2)nc1 [Compound 84] | (302.2x) | 2230 nM | (403.4x) | 2970 nM | (613x) | 4520 nM | 7 nM
O=C(NO)c1cnc(NCc2cccs2)nc1 [Compound 105] | (54.5x) | 214 nM | (92.1x) | 361 nM | (92x) | 361 nM | 4 nM
Cc1ccc(C2(Nc3ncc(C(=O)NO)cn3)CC2)cc1 [Compound 93] | (25.9x) | 80 nM | (34.7x) | 107 nM | (51x) | 157 nM | 3 nM
O=C(NO)c1cnc(NC2(Cc3ccccc3)CC2)nc1 [Compound 109] | (79.5x) | 324 nM | (94.3x) | 385 nM | (206.7x) | 843 nM | 4 nM
